Experimental data as given in patent US20230190851A1, “PLANT COMPOUNDS FOR TREATING ALZHEIMER'S DISEASE” (RRW B.V., priority 2020, published 2023).

System: C. elegans nematode strain with inducible amyloid-β accumulation (CL4176)
Assay: Alzheimer's disease paralysis assay, C. elegans strain with inducible amyloid-β accumulation
Assay type: in vivo
Conditions: strain CL4176, heat shock 25° C., counted approximately every 24 h; combination effect after 71 h, persisted for 95 h
Excerpt: These strains accumulate amyloid-β peptides that form plaques in the nematodes and lead to paralysis of the animals. In certain strains, such as strain CL4176, Aβ accumulation occurs only in response to heat shock. Thus, the Alzheimer's disease pattern is inducible in these strains. The number of paralyzed nematodes after a certain period of time following induction of Aβ accumulation indicates the extent of Alzheimer's disease. Thus, the effect of certain substances to which the nematodes are exposed on the number of paralyzed animals is a measure of the anti-Alzheimer effect of these substances.
Nematodes of strain CL4176 were synchronized at the young larval stage and allowed to grow to the L4 stage on normal growth medium for 72 h at 16° C. Then the nematodes were exposed to the test substance and the temperature was increased to 25° C. This heat shock induced Aβ accumulation, simulating the onset of Alzheimer's disease. Approximately every 24 h, the number of animals that were still mobile and those that were paralyzed as a result of Aβ accumulation was determined.

C=C(C)[C@@H]1CCC(C)=C[C@H]1c1c(O)cc(CCCCC)cc1O [CBD, cannabidiol]
number of mobile / paralyzed animals after induction of Aβ accumulation: only little effect
